26 compounds from patent US9371320B2, “Heterocyclic compound” (TAKEDA PHARMACEUTICAL COMPANY LIMITED, priority 2012, dated 2016) can be followed below.

Test [1] deals with T1, Tyk2 (Homo sapiens, UniProt P29597).
T1 construct: purchased Invitrogen
The test can be described thus: Tyk2 enzyme inhibition test (LANCE method). It is filed as biochemical. The settings on record: for inhibition at 1 µM: read-out: Inhibitory rate (%) Tyk2 1 μM. The essentials:
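LANCE TR-FRET read-out (ex 340/em 665 nm, 100 μs delay) of ULight-JAK1 phosphorylation, with no-enzyme wells as 100% inhibition. Reaction run 1 h at room temperature in pH 7.5 HEPES buffer; enzyme 375 ng/mL, substrate 300 nM and ATP 30 μM are solution concentrations before mixing.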
On the technique in general: Time-resolved FRET reads energy transfer from a long-lived donor to a nearby acceptor.

The target in test [2] is T2, JAK1 (Homo sapiens, UniProt P23458).
T2 construct: purchased Invitrogen
The test can be described thus: JAK1 enzyme inhibition test (LANCE method). It is filed as biochemical. The settings on record: for inhibition at 10 µM: read-out: Inhibitory rate (%) JAK1 10 μM; for inhibition at 1 µM: test compound 1 μM, read-out: Inhibitory rate (%) JAK1 1 μM. The essentials:
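Reactions ran 1 h at room temperature in HEPES pH 7.5/MgCl2 buffer, with ATP solution at 150 μM and JAK1 and ULight peptide solutions at 187.5 ng/mL and 300 nM. Reactions were stopped with EDTA, and phosphorylation was read by Eu antibody time-resolved fluorescence at 665 nm. Inhibition was scaled to a no-enzyme control as 100%.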

Setting [3] is: test compound 10 μM (Ex. 182-220), beside Tyk2 1 μM.

Like-named read-outs stand apart in the source and are kept apart here.

T1 sequence (P29597 whole entry): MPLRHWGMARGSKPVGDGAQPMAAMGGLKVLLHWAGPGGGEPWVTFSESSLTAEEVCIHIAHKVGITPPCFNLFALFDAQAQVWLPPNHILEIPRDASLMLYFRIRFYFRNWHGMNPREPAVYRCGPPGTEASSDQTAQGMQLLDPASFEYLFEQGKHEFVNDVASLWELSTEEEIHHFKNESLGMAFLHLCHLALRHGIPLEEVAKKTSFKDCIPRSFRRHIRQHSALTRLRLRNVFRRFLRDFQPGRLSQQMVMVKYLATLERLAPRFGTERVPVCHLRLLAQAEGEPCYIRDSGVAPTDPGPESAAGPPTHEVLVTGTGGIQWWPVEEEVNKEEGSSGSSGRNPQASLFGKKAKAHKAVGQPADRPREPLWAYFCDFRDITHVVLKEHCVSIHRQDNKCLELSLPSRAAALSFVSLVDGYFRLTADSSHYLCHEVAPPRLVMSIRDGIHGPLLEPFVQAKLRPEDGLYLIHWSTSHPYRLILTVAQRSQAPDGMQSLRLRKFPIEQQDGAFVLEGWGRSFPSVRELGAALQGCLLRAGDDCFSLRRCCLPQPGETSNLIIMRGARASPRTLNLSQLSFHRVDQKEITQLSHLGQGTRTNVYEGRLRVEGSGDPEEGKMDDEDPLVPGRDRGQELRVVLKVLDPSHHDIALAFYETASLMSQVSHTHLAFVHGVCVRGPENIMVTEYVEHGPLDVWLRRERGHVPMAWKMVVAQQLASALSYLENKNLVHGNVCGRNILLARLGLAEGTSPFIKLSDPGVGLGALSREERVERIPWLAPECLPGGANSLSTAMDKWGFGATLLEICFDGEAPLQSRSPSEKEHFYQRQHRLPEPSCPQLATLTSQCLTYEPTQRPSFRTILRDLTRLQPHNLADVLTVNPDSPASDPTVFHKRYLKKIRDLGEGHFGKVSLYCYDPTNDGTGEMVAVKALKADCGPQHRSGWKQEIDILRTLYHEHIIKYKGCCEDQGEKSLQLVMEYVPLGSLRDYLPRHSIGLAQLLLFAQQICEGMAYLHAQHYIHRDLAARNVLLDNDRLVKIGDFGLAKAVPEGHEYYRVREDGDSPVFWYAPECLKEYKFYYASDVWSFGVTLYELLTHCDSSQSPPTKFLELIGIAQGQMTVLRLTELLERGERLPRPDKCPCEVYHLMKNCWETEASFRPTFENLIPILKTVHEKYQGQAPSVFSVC
T2 sequence (P23458 whole entry): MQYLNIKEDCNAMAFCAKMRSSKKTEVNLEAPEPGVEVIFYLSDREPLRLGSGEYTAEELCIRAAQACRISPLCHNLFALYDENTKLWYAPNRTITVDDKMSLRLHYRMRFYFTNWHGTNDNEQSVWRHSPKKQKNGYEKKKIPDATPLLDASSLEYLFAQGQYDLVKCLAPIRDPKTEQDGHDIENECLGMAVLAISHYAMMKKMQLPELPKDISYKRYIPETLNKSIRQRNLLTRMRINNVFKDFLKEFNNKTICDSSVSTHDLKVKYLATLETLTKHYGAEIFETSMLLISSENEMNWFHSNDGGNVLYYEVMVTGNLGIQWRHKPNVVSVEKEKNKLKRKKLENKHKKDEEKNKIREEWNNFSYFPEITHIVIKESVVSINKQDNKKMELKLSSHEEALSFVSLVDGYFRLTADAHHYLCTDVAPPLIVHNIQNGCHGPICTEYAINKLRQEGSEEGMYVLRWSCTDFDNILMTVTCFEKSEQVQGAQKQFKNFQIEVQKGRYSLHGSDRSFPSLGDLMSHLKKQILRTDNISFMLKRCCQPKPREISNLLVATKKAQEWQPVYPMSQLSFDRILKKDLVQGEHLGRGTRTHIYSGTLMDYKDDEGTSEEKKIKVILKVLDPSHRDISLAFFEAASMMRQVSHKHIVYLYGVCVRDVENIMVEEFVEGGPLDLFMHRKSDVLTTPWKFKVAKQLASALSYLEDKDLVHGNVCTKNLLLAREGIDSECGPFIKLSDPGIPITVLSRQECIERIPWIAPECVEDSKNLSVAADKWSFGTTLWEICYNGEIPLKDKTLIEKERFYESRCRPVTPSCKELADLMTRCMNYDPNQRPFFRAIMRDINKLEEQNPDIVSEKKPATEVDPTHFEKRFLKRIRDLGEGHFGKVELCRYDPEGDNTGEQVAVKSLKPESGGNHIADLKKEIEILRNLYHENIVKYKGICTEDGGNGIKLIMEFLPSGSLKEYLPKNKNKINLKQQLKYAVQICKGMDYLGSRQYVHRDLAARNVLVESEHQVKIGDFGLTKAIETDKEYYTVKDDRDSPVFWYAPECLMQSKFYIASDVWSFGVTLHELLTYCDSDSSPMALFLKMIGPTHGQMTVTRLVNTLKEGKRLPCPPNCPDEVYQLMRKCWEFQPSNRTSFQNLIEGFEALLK

With `O=c1[nH]cc(Cl)c2c1c(-c1cnn(C3CCOCC3)c1)nn2-c1c(F)cccc1F` [Example 205, 7-chloro-1-(2,6-difluorophenyl)-3-(1-(tetrahydro-2H-pyran-4-yl)-1H-pyrazol-4-yl)-1,5-dihydro-4H-pyrazolo[4,3-c]pyridin-4-one], the inhibition at 1 µM in test [1] (test compound 1 μM) is 97%. For the same compound, the inhibition at 10 µM in test [2] (setting [3]) came to 34%.
`O=c1[nH]cc(Cl)c2c1c(-c1ccc(N3CCOCC3)c(F)c1)nn2-c1c(F)cccc1F` [Example 206, 7-chloro-1-(2,6-difluorophenyl)-3-(3-fluoro-4-(morpholin-4-yl)phenyl)-1,5-dihydro-4H-pyrazolo[4,3-c]pyridin-4-one]: in test [1] (test compound 1 μM), the inhibition at 1 µM was found to be 100%. Besides, in test [2] (setting [3]), the inhibition at 10 µM came out at 45%.
The corresponding values for `O=c1[nH]cc(Cl)c2c1c(-c1ccc(N3CCCOCC3)cc1)nn2-c1c(F)cccc1F` [Example 207, 7-chloro-1-(2,6-difluorophenyl)-3-(4-(1,4-oxazepan-4-yl)phenyl)-1,5-dihydro-4H-pyrazolo[4,3-c]pyridin-4-one] are 100% and 73%.
With `O=c1[nH]cc(Cl)c2c1c(C1CC1)nn2-c1c(F)cccc1F` [Example 208, 7-chloro-3-cyclopropyl-1-(2,6-difluorophenyl)-1,5-dihydro-4H-pyrazolo[4,3-c]pyridin-4-one], the inhibition at 10 µM came to 83% in test [1] (test compound 10 μM, read-out: Inhibitory rate (%) Tyk2 10 μM) and 28% in test [2] (test compound 10 μM).
Take `CCC1(O)CCC(n2nc(-c3ccc(S(N)(=O)=O)cc3)c3c(=O)[nH]ccc32)CC1` (stereo not shown) [Example 209, 4-(1-(4-ethyl-4-hydroxycyclohexyl)-4-oxo-4,5-dihydro-1H-pyrazolo[4,3-c]pyridin-3-yl)benzenesulfonamide]: the inhibition at 1 µM in test [1] (test compound 1 μM) amounted to 99%. Further, the inhibition at 10 µM in test [2] (setting [3]) was 99%.
As to `CCC1(O)CCC(n2nc(-c3ccc(S(N)(=O)=O)cc3)c3c(=O)[nH]ccc32)CC1` (stereo not shown) [Example 210, 4-(1-(4-ethyl-4-hydroxycyclohexyl)-4-oxo-4,5-dihydro-1H-pyrazolo[4,3-c]pyridin-3-yl)benzenesulfonamide], in test [1] (test compound 1 μM), the “Inhibitory rate (%) Tyk2 1 μM” value was found to be 97%. Also, in test [2] (setting [3]), the “Inhibitory rate (%) JAK1 10 μM” value was found to be 99%.
In the case of `Cc1ccccc1-n1nc(-c2ccc(S(N)(=O)=O)cc2)c2c(=O)[nH]ccc21` [Example 211, 4-(1-(2-methylphenyl)-4-oxo-4,5-dihydro-1H-pyrazolo[4,3-c]pyridin-3-yl)benzenesulfonamide], the inhibition at 1 µM in test [1] (test compound 1 μM) was 98%. In addition, the inhibition at 10 µM in test [2] (setting [3]) was found to be 99%.
For `NS(=O)(=O)c1ccc(-c2nn(-c3ccccc3C(F)(F)F)c3cc[nH]c(=O)c23)cc1` [Example 212, 4-(4-oxo-1-(2-(trifluoromethyl)phenyl)-4,5-dihydro-1H-pyrazolo[4,3-c]pyridin-3-yl)benzenesulfonamide], in that order: 96% and 99%.
For `NS(=O)(=O)c1ccc(-c2nn(-c3ccccc3F)c3cc[nH]c(=O)c23)cc1` [Example 213, 4-(1-(2-fluorophenyl)-4-oxo-4,5-dihydro-1H-pyrazolo[4,3-c]pyridin-3-yl)benzenesulfonamide], in that order: 99% and 98%.
On to `NS(=O)(=O)c1ccc(-c2nn(-c3ccccc3Cl)c3cc[nH]c(=O)c23)cc1` [Example 214, 4-(1-(2-chlorophenyl)-4-oxo-4,5-dihydro-1H-pyrazolo[4,3-c]pyridin-3-yl)benzenesulfonamide], for which, in test [1] (test compound 1 μM), the inhibition at 1 µM amounted to 99%. Besides, in test [2] (setting [3]), the inhibition at 10 µM stood at 99%.
As for `NC(=O)c1ccc(-c2nn(-c3c(F)cccc3F)c3c(Cl)c[nH]c(=O)c23)cc1F` [Example 215, 4-(7-chloro-1-(2,6-difluorophenyl)-4-oxo-4,5-dihydro-1H-pyrazolo[4,3-c]pyridin-3-yl)-2-fluorobenzamide], the inhibition at 1 µM in test [1] (test compound 1 μM) was found to be 94%. Also, the inhibition at 10 µM in test [2] (setting [3]) is 22%.
For the compound `CNC(=O)c1ccc(-c2nn(-c3c(F)cccc3F)c3c(Cl)c[nH]c(=O)c23)cc1F` [Example 216, 4-(7-chloro-1-(2,6-difluorophenyl)-4-oxo-4,5-dihydro-1H-pyrazolo[4,3-c]pyridin-3-yl)-2-fluoro-N-methylbenzamide], the inhibition at 1 µM in test [1] (test compound 1 μM) was 97%. The inhibition at 10 µM in test [2] (setting [3]) turned out to be 27%.
For `COCCNC(=O)COc1ccc(-c2nn(-c3c(F)cccc3F)c3c(Cl)c[nH]c(=O)c23)cc1` [Example 217, 2-(4-(7-chloro-1-(2,6-difluorophenyl)-4-oxo-4,5-dihydro-1H-pyrazolo[4,3-c]pyridin-3-yl)phenoxy)-N-(2-methoxyethyl)acetamide], in that order: 99% and 74%.
Turning to `O=c1[nH]cc(Br)c2c1c(-c1ccc(N3CCOCC3)cc1)nn2-c1c(F)cccc1F` [Example 218, 7-bromo-1-(2,6-difluorophenyl)-3-(4-(morpholin-4-yl)phenyl)-1,5-dihydro-4H-pyrazolo[4,3-c]pyridin-4-one], in test [1] (test compound 1 μM), the inhibition at 1 µM came out at 99%. Moreover, the inhibition at 10 µM in test [2] (setting [3]) was found to be 85%.
The corresponding values for `O=C1CCC(=O)N1Cc1ccc(-c2nn(-c3c(F)cccc3F)c3c(Cl)c[nH]c(=O)c23)cc1` [Example 219, 1-(4-(7-chloro-1-(2,6-difluorophenyl)-4-oxo-4,5-dihydro-1H-pyrazolo[4,3-c]pyridin-3-yl)benzyl)pyrrolidine-2,5-dione] are 98% and 82%.
For `O=C1CCCN1Cc1cc(-c2nn(-c3c(F)cccc3F)c3c(Cl)c[nH]c(=O)c23)cs1` [Example 220, 7-chloro-1-(2,6-difluorophenyl)-3-(5-((2-oxopyrrolidin-1-yl)methyl)-3-thienyl)-1,5-dihydro-4H-pyrazolo[4,3-c]pyridin-4-one], in that order: 100% and 98%.
On to `CNC(=O)COc1ccc(-c2nn(-c3c(F)cccc3F)c3c(Cl)c[nH]c(=O)c23)cc1` [Example 221, 2-(4-(7-chloro-1-(2,6-difluorophenyl)-4-oxo-4,5-dihydro-1H-pyrazolo[4,3-c]pyridin-3-yl)phenoxy)-N-methylacetamide], for which the inhibition at 1 µM in test [1] (test compound 1 μM) amounted to 99%; in test [2], 80%.
The corresponding values for `CCNC(=O)n1cc(-c2nn(-c3c(F)cccc3F)c3c(Cl)c[nH]c(=O)c23)cn1` [Example 222, 4-(7-chloro-1-(2,6-difluorophenyl)-4-oxo-4,5-dihydro-1H-pyrazolo[4,3-c]pyridin-3-yl)-N-ethyl-1H-pyrazole-1-carboxamide] are 98% and 69%.
The corresponding values for `CNS(=O)(=O)c1ccc(-c2nn(C3CCCC3)c3cc[nH]c(=O)c23)cc1` [Example 223, 4-(1-cyclopentyl-4-oxo-4,5-dihydro-1H-pyrazolo[4,3-c]pyridin-3-yl)-N-methylbenzenesulfonamide] are 97% and 99%.
The corresponding values for `O=C1CCCN1Cc1ccc(-c2nn(-c3c(F)cccc3F)c3c(Cl)c[nH]c(=O)c23)cc1` [Example 224, 7-chloro-1-(2,6-difluorophenyl)-3-(4-((2-oxopyrrolidin-1-yl)methyl)phenyl)-1,5-dihydro-4H-pyrazolo[4,3-c]pyridin-4-one] are 99% and 78%.
Regarding `O=C1NCCN1c1ccc(-c2nn(-c3c(F)cccc3F)c3c(Cl)c[nH]c(=O)c23)cc1` [Example 225, 7-chloro-1-(2,6-difluorophenyl)-3-(4-(2-oxoimidazolidin-1-yl)phenyl)-1,5-dihydro-4H-pyrazolo[4,3-c]pyridin-4-one], the inhibition at 1 µM is 99% in test [1] (test compound 1 μM) and 58% in test [2].
For `Cn1cnc2cc(-c3nn(-c4c(F)cccc4F)c4c(Cl)c[nH]c(=O)c34)ccc21` [Example 226, 7-chloro-1-(2,6-difluorophenyl)-3-(1-methyl-1H-benzimidazol-5-yl)-1,5-dihydro-4H-pyrazolo[4,3-c]pyridin-4-one], in that order: 98% and 40%.
For `O=C1Cc2ccc(-c3nn(-c4c(F)cccc4F)c4c(Cl)c[nH]c(=O)c34)cc2N1` [Example 227, 7-chloro-1-(2,6-difluorophenyl)-3-(2-oxo-2,3-dihydro-1H-indol-6-yl)-1,5-dihydro-4H-pyrazolo[4,3-c]pyridin-4-one], in that order: 97% and 54%.
The corresponding values for `N#Cc1c[nH]c(=O)c2c(-c3cn[nH]c3)nn(-c3c(F)cccc3F)c12` [Example 228, 1-(2,6-difluorophenyl)-4-oxo-3-(1H-pyrazol-4-yl)-4,5-dihydro-1H-pyrazolo[4,3-c]pyridine-7-carbonitrile] are 99% and 85%.
Take `N#Cc1c[nH]c(=O)c2c(-c3ccc(N4CCOCC4)cc3)nn(-c3c(F)cccc3F)c12` [Example 229, 1-(2,6-difluorophenyl)-3-(4-(morpholin-4-yl)phenyl)-4-oxo-4,5-dihydro-1H-pyrazolo[4,3-c]pyridine-7-carbonitrile]: the inhibition at 1 µM in test [1] (test compound 1 μM) turned out to be 98%; in test [2], 81%.
For `NC(=O)c1ccc(-c2nn(-c3c(F)cccc3F)c3cc[nH]c(=O)c23)cc1` [Example 230, 4-(1-(2,6-difluorophenyl)-4-oxo-4,5-dihydro-1H-pyrazolo[4,3-c]pyridin-3-yl)benzamide], in that order: 99% and 92%.
